Assays:
Liver microsomes [1] = assay: (§1) Metabolic stability in rat liver microsomes assessed as compound remaining at 0.5 mg/ml after 15 mins; type: ADME, Microsome; settings: microsomes, 0.25 h
[2] = biological target: C-C chemokine receptor type 5 (Homo sapiens, UniProt P51681); assay: Antagonist activity at human CCR5 receptor expressed in CHO cells assessed as inhibition of MIP-1-alpha-stmulated calcium mobilization; type: functional, cell-based
Liver microsomes [3] = assay: Half life in rat liver microsome at 0.2 mg/ml; type: ADME
Rattus norvegicus [4] = assay: (§2) AUC in rat at 30 mg/kg, po; type: ADME, organism-based, Plasma; set-up: dose 30 mg/kg, route oral; settings: in vivo
[5] = Half life in rat at 30 mg/kg, po; type: ADME, organism-based; set-up: dose 30 mg/kg, route oral; settings: in vivo
Caco-2 [6] = assay: Apparent permeability from apical to basolateral side of human Caco-2 cells; type: ADME, cell-based
[7] = Half life in rat at 3 mg/kg, iv; type: ADME, organism-based; set-up: dose 3 mg/kg, route intravenous; settings: in vivo
Rattus norvegicus [8] = assay: AUC in rat at 3 mg/kg, iv; type: ADME, organism-based, Plasma; set-up: dose 3 mg/kg, route intravenous; settings: in vivo
[9] = Aqueous solubility of the compound; type: physicochemical; settings: buffer
Caco-2 [10] = assay: Apparent permeability from basolateral to apical side of human Caco-2 cells; type: ADME, cell-based
[11] = Cmax in rat at 30 mg/kg, po; type: ADME, organism-based; set-up: dose 30 mg/kg, route oral; settings: in vivo
[12] = as §2; type: ADME, organism-based, Plasma; set-up: dose 30 mg/kg, route oral; settings: plasma
[13] = Clearance in rat at 3 mg/kg, iv; type: ADME, organism-based; set-up: dose 3 mg/kg, route intravenous; settings: in vivo
[14] = as §1; type: ADME, Microsome; settings: liver microsomes, read-out: Stability
[15] = test system: Human immunodeficiency virus 1; assay: microbe, parasite or virus in culture; settings: Human immunodeficiency virus 1, BAL
Description: Antiviral activity against HIV1 BAL by p24 assay

[16] = Oral bioavailability in rat at 30 mg/kg; type: ADME, organism-based; settings: in vivo
[17] = Volume of distribution at steadt state in rat at 3 mg/kg, iv; settings: in vivo

C-C chemokine receptor type 5, sequence (P51681 whole entry): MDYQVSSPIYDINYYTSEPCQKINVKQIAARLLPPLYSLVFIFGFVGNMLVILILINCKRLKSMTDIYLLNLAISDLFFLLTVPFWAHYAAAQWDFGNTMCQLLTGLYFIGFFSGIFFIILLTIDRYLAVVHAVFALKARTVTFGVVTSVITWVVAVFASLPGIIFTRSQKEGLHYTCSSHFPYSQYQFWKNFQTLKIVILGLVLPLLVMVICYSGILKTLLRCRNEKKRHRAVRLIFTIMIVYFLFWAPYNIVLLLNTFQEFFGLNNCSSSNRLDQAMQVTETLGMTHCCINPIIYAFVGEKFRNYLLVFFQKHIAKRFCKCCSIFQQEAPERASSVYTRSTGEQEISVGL

SMILES	Stability (Liver microsomes [1])	IC50 [2]	t1/2 (Liver microsomes [3])	also measured
CCCCN1C(=O)[C@H](CC2CCCCC2)NC(=O)C12CCN(Cc1ccc(S(=O)(=O)c3ccccc3)cc1)CC2.Cl	19%	86 nM	–	–
CCCCN1C(=O)C(CC(C)C)NC(=O)C12CCN(Cc1ccc(Oc3ccccc3)cc1)CC2.Cl (racemic)	–	–	12 min	AUC (Rattus norvegicus [4]): 290 ng·h/mL; half-life [5]: 75.7 min; Papp (Caco-2 [6]): 1.51 ×10⁻⁶ cm/s; half-life [7]: 13 min; AUC (Rattus norvegicus [8]): 372 ng; solubility [9]: 14 µM; Papp (Caco-2 [10]): 2.23 ×10⁻⁶ cm/s; Cmax [11]: 100 ng/mL
CCCCN1C(=O)[C@H](CC2CCCCC2)NC(=O)C12CCN(Cc1ccc(Oc3ccc(F)cc3)cc1)CC2.Cl	53%	92 nM	–	–
CCCCN1C(=O)C(CC2CCCCC2)NC(=O)C12CCN(Cc1c(C)nn(-c3ccccc3)c1C)CC2.Cl.Cl (racemic)	23%	35 nM	–	–
CC(C)CC1NC(=O)C2(CCN(Cc3ccc(Oc4ccccc4)cc3)CC2)N(Cc2ccccc2)C1=O (racemic)	–	300 nM	–	–
CCCCN1C(=O)[C@H](CC2CCCCC2)NC(=O)C12CCN(Cc1ccc(Oc3ccc(C)cc3)cc1)CC2.Cl	48%	79 nM	–	–
CCCCN1C(=O)C(CC2CCCCC2)NC(=O)C12CCN(Cc1ccc(Oc3ccccc3)cc1)CC2.Cl (racemic)	–	–	24 min	AUC [12]: 74.4 ng·h/mL; Papp (Caco-2 [6]): 0.15 ×10⁻⁶ cm/s; half-life [7]: 19.9 min; clearance [13]: 113 mL/min/kg; AUC (Rattus norvegicus [8]): 400 ng; solubility [9]: < 5 µM; Papp (Caco-2 [10]): 0.27 ×10⁻⁶ cm/s
CCCCN1C(=O)C(CC2CCCCC2)NC(=O)C12CCN(Cc1ccc(OC)cc1)CC2.Cl (racemic)	–	–	8.3 min	–
CCCCN1C(=O)[C@H](CC2CCCCC2)NC(=O)C12CCN(Cc1ccc(-c3cccnc3)cc1)CC2.Cl.Cl	29%	71 nM	–	–
CCCCN1C(=O)[C@H](CC2CCCCC2)NC(=O)C12CCN(Cc1ccc(Sc3ccccc3)cc1)CC2.Cl	38%	170 nM	–	–
CCCCN1C(=O)[C@H](CC2CCCCC2)NC(=O)C12CCN(Cc1ccc(Oc3ccc(O)cc3)cc1)CC2.Cl	22%	42 nM	–	AUC [12]: 195 ng·h/mL; half-life [5]: 205 min; Papp (Caco-2 [6]): 0.33 ×10⁻⁶ cm/s; solubility [9]: < 5 µM; Papp (Caco-2 [10]): 0.14 ×10⁻⁶ cm/s; Cmax [11]: 100 ng/mL
CCCCN1C(=O)[C@H](CC2CCCCC2)NC(=O)C12CCN(Cc1ccc(Oc3ccc(C(=O)O)cc3)cc1)CC2.Cl	–	–	–	Papp (Caco-2 [6]): 11 ×10⁻⁶ cm/s; solubility [9]: 29 µM; Papp (Caco-2 [10]): 16.8 ×10⁻⁶ cm/s; remaining at 0.25 h [14]: 22%
CCCCN1C(=O)C(CC2CCCCC2)NC(=O)C12CCN(c1ccc(C(=O)OCC)cc1)CC2 (racemic)	–	> 3000 nM	–	–
CCCCN1C(=O)[C@H](CC2CCCCC2)NC(=O)C12CCN(Cc1ccc(Oc3ccc(S(N)(=O)=O)cc3)cc1)CC2.Cl	24%	28 nM	–	IC50 [15]: 10 nM
CCCCN1C(=O)C(CC2CCCCC2)NC(=O)C12CCN(Cc1c[nH]c(-c3ccccc3)n1)CC2 (racemic)	–	160 nM	–	–
CCCCN1C(=O)C(CCC)NC(=O)C12CCN(Cc1ccc(Oc3ccccc3)cc1)CC2.Cl (racemic)	–	50 nM	22 min	–
CCCCN1C(=O)[C@H](CC(C)C)NC(=O)C12CCN(Cc1ccc(Oc3ccccc3)cc1)CC2.Cl	–	–	7.1 min	–
CCCCN1C(=O)[C@H](CC2CCCCC2)NC(=O)C12CCN(Cc1ccc(C(=O)Nc3ccccc3)cc1)CC2.Cl	29%	57 nM	–	–

SMILES	Stability (Liver microsomes [1])	IC50 [2]	t1/2 (Liver microsomes [3])	also measured
CCCCN1C(=O)[C@H](CC2CCCCC2)NC(=O)C12CCN(Cc1nc(-c3ccccc3)oc1C)CC2	–	450 nM	–	–
CC(C)CC1NC(=O)C2(CCN(Cc3ccc(Oc4ccccc4)cc3)CC2)N(CCC(C)O)C1=O.Cl (racemic)	–	> 3000 nM	12 min	AUC [12]: 10500 ng·h/mL; half-life [5]: 48.4 min; half-life [7]: 11.1 min; clearance [13]: 16 mL/min/kg; bioavailability [16]: 34.1%; Cmax [11]: 7200 ng/mL; Vd [17]: 0.145 L/kg
CCCCN1C(=O)C(CC(=O)O)NC(=O)C12CCN(Cc1ccc(Oc3ccccc3)cc1)CC2 (racemic)	–	> 3000 nM	–	–
CCCCN1C(=O)[C@H](CC2CCCCC2)NC(=O)C12CCN(Cc1ccc(C(=O)c3ccccc3)cc1)CC2.Cl	23%	81 nM	–	–
CCCCN1C(=O)C(CC2CCCCC2)NC(=O)C12CCN(C(=O)OCc1ccccc1)CC2 (racemic)	–	3000 nM	–	–
CCCCN1C(=O)C(CC2CCCCC2)NC(=O)C12CCN(Cc1csc(-c3ccccc3)n1)CC2 (racemic)	–	570 nM	–	–
CCCCN1C(=O)[C@H](CC2CCCCC2)NC(=O)C12CCN(Cc1ccc(Oc3ccc(NS(C)(=O)=O)cc3)cc1)CC2.Cl	15%	40 nM	–	–
CCCCN1C(=O)[C@H](CC(C)(C)C)NC(=O)C12CCN(Cc1ccc(Oc3ccccc3)cc1)CC2.Cl	–	79 nM	12 min	–
CCCCN1C(=O)C(CC(=O)OCc2ccccc2)NC(=O)C12CCN(Cc1ccc(Oc3ccccc3)cc1)CC2 (racemic)	–	590 nM	–	–
CCCCN1C(=O)C(CC2CCCCC2)NC(=O)C12CCN(Cc1ccc(Oc3ccccc3)nc1)CC2.Cl.Cl (racemic)	10%	21 nM	–	–
CC#CCN1C(=O)C(CC(C)C)NC(=O)C12CCN(Cc1ccc(Oc3ccccc3)cc1)CC2.Cl (racemic)	–	54 nM	15 min	–
CCCCN1C(=O)C(CC2CCCC2)NC(=O)C12CCN(Cc1ccc(Oc3ccccc3)cc1)CC2.Cl (racemic)	–	52 nM	20 min	–
CCCCN1C(=O)[C@H](CC2CCCCC2)NC(=O)C12CCN(Cc1ccc(Oc3ccc(OC)cc3)cc1)CC2.Cl	34%	130 nM	–	–
CCCCN1C(=O)[C@H](CC2CCCCC2)NC(=O)C12CCN(CCc1ccc(Oc3ccccc3)cc1)CC2	–	> 3000 nM	–	–
C/C=C/CN1C(=O)C(CC(C)C)NC(=O)C12CCN(Cc1ccc(Oc3ccccc3)cc1)CC2.Cl (racemic)	–	69 nM	14 min	–
CC(C)CC1NC(=O)C2(CCN(Cc3ccc(Oc4ccccc4)cc3)CC2)N(CC(C)C)C1=O.Cl (racemic)	–	330 nM	15 min	–
CCCCN1C(=O)[C@H](CC2CCCCC2)NC(=O)C12CCN(Cc1ccc(Oc3ccc(C(=O)NC)cc3)cc1)CC2.Cl	4%	33 nM	–	half-life [5]: 72.7 min; Papp (Caco-2 [6]): 3.51 ×10⁻⁶ cm/s; solubility [9]: 6 µM
CCCCN1C(=O)C(CCCC2CCCCC2)NC(=O)C12CCN(Cc1ccc(Oc3ccccc3)cc1)CC2.Cl (racemic)	–	> 3000 nM	23 min	–

Source: ChEMBL document CHEMBL1177672, “Discovery of orally available spirodiketopiperazine-based CCR5 antagonists” (Bioorg Med Chem, 2010)
